# Measurements as given in patent publication US20230414543A1, “METHOD OF FEEDING A GESTATING OR LACTATING ANIMAL” (NUTRECO IP ASSETS B.V., priority 2021, published 2023).
# Where two headings read alike, the source gives them in different places.
# Tests used:
# [1] = test system: gestating or lactating sows and their litters
# Description: (§1) From day 80 of gestation up to parturition (day 115 of gestation), and subsequently through the whole period of lactation from parturition until weaning (25 days after parturition), sows of various parities were fed a top dress of 100 g/day on top of their normal diet. […] The placebo top dress was formulated from barley, wheat, corn, wheat bran, molasses, vegetable oil, and sugar. […] The ingredient (40%) was embedded in a matrix of hydrogenated fat (50%) and calcium carbonate (10%).
# (§2) During gestation, sows were fed the normal diet at approximately 3 kg/day. In lactation, all sows were fed the normal diet at an increasing level following a set feeding scheme, starting from 3 kg after parturition, and increasing by 0.5 kg each day to the maximum intake capacity of each sow. The allowance was capped at a maximum of 9 kg/day.
# At parturition, piglets were weighed immediately as they were born, and again at 24 h after birth, to estimate colostrum intake based on the algorithm developed by Theil et al. (Mechanistic model to predict colostrum intake based on deuterium oxide dilution technique data and impact of gestation and prefarrowing diets on piglet intake and sow yield of colostrum. J. Anim. Sci. 2014, 92:5507-5519). One day after parturition, when 24-h weights had been recorded, litter size was standardized by cross-fostering, to 14 or 15 piglets per litter. […] As a measure of milk production, the weight gain of the litter was measured at 7 days after parturition, and again at 24 days of lactation, just before piglets were weaned. […] When analyzing the data, litter weight gain was corrected for litter size.
# [2] = test system: gestating or lactating sows and their litters; remark: listed apart in the source
# Description: From day 109 of gestation up to parturition (day 115 of gestation), and subsequently through the whole period of lactation from parturition until weaning (25 days after parturition), sows of various parities were fed a top dress of 100 g/day on top of their normal diet. […] The placebo top dress was formulated from barley, wheat, corn, wheat bran, molasses, vegetable oil, and sugar.
# as §2
# At parturition, piglets were weighed immediately as they were born. One day after parturition, litter size was standardized by cross-fostering, to 14 or 15 piglets per litter. Piglets were only cross-fostered to sows within the same treatment. As a measure of milk production, the weight gain of the litter was measured at 7 days after parturition, and again at 21 days of lactation, just before piglets were weaned (24 days of lactation). […] When analyzing the data, litter weight gain was corrected for litter size.
# colostrum of sows = test system: colostrum of sows
# Description: as §1
# Colostrum samples were collected just after the first piglet was born and were analyzed for total solids, protein, and lactose, using Brix refractometry. Brix refractometry is a method to measure the concentration of solutes in a solution, based on the refraction of light, and is widely used to analyze milk samples in the dairy industry (for example: Lokke M M, Engelbrecht R, Wiking L. Covariance structures of fat and protein influence the estimation of IgG in bovine colostrum. Journal of Dairy Research (2016), 83: 58-66). […] Total solids is the sum of protein, fat, and lactose.
# The total output of nutrients (protein, lactose, or total solids) per sow was calculated by multiplying the volume of colostrum per sow (Table 2) with the concentration (Table 3) of each nutrient.
# [3] = corrected for litter size, 4 g/day, day 80 of gestation until weaning
# [4] = piglets, 4 g/day, day 80 of gestation until weaning
# [5] = Brix refractometry, sample just after first piglet was born
# [6] = volume of colostrum × concentration
substance,measurement,setting,value
calcium gluconate,"Litter weight gain d1-d7, kg per litter",[1]; [3],16.9 kg per litter
same,"Litter weight gain d1-d24, kg per litter",[1]; [3],70.0 kg per litter
same,Total colostrum intake per litter,"[1]; corrected for litter size, estimated from piglet weights at birth and 24 h (Theil et al.), 4 g/day calcium gluconate in fat matrix, top dress from day 80 of gestation until weaning",5565 g
same,Increase of litter weight gain compared to placebo,[1]; first seven days of lactation,7.6%
same,"Litter size at weaning, difference compared to placebo",[1]; piglets per litter,0.3
same,Numbers weaned,"[1]; piglets per litter, 4 g/day, day 80 of gestation until weaning",13.2
same,Neonatal mortality up to day 7,[1]; [4],8.4%
same,Pre-wean mortality,[1]; [4],9.6%
same,Neonatal survival compared to placebo,[1]; result in words,greater
same,Survival throughout the whole lactation period compared to placebo,[1]; result in words,greater
same,Increase of litter weight gain compared to placebo,[1]; whole lactation period,5%
same,Litter weight gain day 1-day 21,"[2]; 4 g/day, day 109 of gestation until weaning",67.1 kg
same,"Litter size at weaning, difference compared to placebo",[2]; piglets per litter,0.4
same,Survival of piglets throughout the whole lactation period compared to placebo,[2]; result in words,greater
same,"Litter gain, difference compared to placebo",[2]; when correcting for the number of piglets weaned,2.2 kg
same,Concentration of solutes in colostrum: Lactose,colostrum of sows; [5],2.4%
same,Concentration of solutes in colostrum: Protein,colostrum of sows; [5],17.5%
same,"Higher output of total solids, total protein and lactose compared to placebo",colostrum of sows; colostrum,6-10%
same,Concentration of solutes in colostrum: Total solids,"colostrum of sows; total of fat, protein and lactose, Brix refractometry, sample just after first piglet was born",25.0%
same,Total output of nutrients per sow: Total lactose per sow,colostrum of sows; [6],136 g
same,Total output of nutrients per sow: Total protein per sow,colostrum of sows; [6],1008 g
same,Total output of nutrients per sow: Total solids per sow,colostrum of sows; [6],1437 g
